Measured values from ChEMBL document CHEMBL3046773 (Med Chem Res, 2013).

Biological target: Voltage-dependent L-type calcium channel subunit alpha-1C (Cavia porcellus, UniProt O35505)
Experiment: Antagonist activity at calcium channel in Cavia porcellus (guinea pig) ileum assessed as inhibition of KCl-induced muscle contraction at 10 mM; call rule not given here
Type: tissue-based

Voltage-dependent L-type calcium channel subunit alpha-1C, sequence (O35505 whole entry): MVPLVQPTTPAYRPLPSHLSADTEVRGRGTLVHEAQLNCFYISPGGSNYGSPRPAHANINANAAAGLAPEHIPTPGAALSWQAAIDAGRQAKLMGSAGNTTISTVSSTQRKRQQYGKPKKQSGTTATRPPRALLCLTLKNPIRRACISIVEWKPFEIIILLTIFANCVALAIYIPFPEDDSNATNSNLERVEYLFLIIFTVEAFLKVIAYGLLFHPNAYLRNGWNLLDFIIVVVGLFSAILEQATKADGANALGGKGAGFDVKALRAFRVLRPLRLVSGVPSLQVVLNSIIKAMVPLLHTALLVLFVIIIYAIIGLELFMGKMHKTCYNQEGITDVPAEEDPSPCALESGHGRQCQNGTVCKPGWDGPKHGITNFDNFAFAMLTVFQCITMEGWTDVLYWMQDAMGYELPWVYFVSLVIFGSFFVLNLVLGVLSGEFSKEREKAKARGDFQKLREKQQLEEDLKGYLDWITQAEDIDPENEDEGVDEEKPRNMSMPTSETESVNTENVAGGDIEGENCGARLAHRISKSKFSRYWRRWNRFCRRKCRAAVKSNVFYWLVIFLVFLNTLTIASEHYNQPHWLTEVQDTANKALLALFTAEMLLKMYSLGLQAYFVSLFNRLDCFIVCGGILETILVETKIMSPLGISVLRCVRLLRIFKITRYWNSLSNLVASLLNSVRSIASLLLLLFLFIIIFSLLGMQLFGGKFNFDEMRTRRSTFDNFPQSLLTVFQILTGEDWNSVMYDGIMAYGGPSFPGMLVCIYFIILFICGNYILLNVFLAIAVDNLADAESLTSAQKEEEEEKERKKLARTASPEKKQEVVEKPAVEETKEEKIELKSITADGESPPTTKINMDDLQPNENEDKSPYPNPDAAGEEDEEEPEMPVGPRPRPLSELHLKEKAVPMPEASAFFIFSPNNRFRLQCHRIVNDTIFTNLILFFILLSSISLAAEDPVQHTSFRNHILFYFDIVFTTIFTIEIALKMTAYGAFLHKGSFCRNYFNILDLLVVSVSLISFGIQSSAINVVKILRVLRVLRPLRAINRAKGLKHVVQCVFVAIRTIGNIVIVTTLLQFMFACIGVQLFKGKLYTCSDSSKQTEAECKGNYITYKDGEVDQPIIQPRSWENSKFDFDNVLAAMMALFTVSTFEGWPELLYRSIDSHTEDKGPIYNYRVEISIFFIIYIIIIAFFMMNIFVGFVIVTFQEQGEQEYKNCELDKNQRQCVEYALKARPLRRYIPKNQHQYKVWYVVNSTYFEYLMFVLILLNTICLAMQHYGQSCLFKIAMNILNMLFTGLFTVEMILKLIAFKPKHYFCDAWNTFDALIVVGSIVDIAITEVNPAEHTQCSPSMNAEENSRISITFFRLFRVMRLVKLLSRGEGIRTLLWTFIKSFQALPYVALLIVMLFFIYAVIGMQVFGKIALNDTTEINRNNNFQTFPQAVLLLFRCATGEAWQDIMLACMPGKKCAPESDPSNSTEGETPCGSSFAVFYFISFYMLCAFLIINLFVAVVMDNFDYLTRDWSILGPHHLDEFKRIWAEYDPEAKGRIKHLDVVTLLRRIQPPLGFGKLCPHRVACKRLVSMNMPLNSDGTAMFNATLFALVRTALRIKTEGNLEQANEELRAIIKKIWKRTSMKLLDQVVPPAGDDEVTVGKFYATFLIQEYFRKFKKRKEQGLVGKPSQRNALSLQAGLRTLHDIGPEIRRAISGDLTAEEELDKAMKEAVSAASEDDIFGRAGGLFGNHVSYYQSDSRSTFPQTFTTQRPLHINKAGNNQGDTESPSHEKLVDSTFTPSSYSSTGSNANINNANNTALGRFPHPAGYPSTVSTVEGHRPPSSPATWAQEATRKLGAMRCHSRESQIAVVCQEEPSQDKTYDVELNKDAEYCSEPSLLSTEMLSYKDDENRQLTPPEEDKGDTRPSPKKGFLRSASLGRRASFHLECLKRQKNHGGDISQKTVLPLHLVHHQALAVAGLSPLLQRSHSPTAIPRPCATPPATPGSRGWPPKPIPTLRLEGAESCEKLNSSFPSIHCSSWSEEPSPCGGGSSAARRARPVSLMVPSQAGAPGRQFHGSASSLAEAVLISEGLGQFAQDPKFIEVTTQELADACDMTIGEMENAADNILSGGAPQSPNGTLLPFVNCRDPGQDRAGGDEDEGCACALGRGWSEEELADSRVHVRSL

Structure (SMILES): COC(=O)C1=C(C)NC(C)=C(C(=O)OC)C1c1ccccc1[N+](=O)[O-] [NIFEDIPINE]
- inhibition (INH): Active
